In patent US20240043427A1 (Gilead Sciences, Inc., priority 2020, published 2024):
pEC50, pIC50: −log10 of the molar value.

Key:
CD73 [1] = target: T1, CD73 (Homo sapiens (Human), UniProt P21589); assay: MDA-MB-231 Cell Based CD73 Activity Assay (DMEM); details: MDA-MB-231-GFP cells, DMEM medium with 10% human plasma, 200 uM AMP
CD73 [2] = target: T1, CD73; format: biochemical; details: 1 mM NaH2PO4 in enzyme buffer, CD73 0.3 nM, AMP 15 uM

T1 sequence (P21589 27-574): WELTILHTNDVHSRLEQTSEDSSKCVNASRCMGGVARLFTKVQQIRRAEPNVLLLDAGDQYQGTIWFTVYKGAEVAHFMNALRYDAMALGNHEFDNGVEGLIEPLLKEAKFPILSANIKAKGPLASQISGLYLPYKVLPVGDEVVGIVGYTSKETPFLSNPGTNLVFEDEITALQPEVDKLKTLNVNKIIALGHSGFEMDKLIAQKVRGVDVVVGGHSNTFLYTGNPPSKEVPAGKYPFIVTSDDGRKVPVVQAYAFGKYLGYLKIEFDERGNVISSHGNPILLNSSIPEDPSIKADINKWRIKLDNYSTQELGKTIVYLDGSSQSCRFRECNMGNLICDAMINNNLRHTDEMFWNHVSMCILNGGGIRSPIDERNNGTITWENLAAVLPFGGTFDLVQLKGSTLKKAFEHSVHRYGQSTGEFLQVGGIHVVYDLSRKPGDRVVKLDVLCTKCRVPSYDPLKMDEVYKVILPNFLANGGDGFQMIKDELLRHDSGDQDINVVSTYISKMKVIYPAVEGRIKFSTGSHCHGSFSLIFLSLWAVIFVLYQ

SMILES	pEC50 (CD73 [1])	pIC50 (CD73 [2])
N#Cc1ccc([C@H]2C[C@@H]2c2cc(-c3c[nH]c(=O)[nH]c3=O)nn3ccnc23)cc1C1CC1 [Example 563, 2-cyclopropyl-4-((1S,2S)-2-(6-(2,4-dioxo-1,2,3,4-tetrahydropyrimidin-5-yl)imidazo[1,2-b]pyridazin-8-yl)cyclopropyl)benzonitrile]	7.97	9.18
N#Cc1cc(F)c([C@H]2C[C@@H]2c2cc(-c3c[nH]c(=O)[nH]c3=O)nn3ccnc23)cc1F [Example 565, 4-((1S,2S)-2-(6-(2,4-dioxo-1,2,3,4-tetrahydropyrimidin-5-yl)imidazo[1,2-b]pyridazin-8-yl)cyclopropyl)-2,5-difluorobenzonitrile]	8.03	8.70
N#Cc1ccc([C@H]2C[C@@H]2c2cc(-c3c[nH]c(=O)[nH]c3=O)nn3ccnc23)cc1Cl [Example 566, 2-chloro-4-((1S,2S)-2-(6-(2,4-dioxo-1,2,3,4-tetrahydropyrimidin-5-yl)imidazo[1,2-b]pyridazin-8-yl)cyclopropyl)benzonitrile]	8.35	9.11
Cc1cc([C@H]2C[C@@H]2c2cc(-c3c[nH]c(=O)[nH]c3=O)nn3ccnc23)cc(F)c1C#N [Example 567, 4-((1S,2S)-2-(6-(2,4-dioxo-1,2,3,4-tetrahydropyrimidin-5-yl)imidazo[1,2-b]pyridazin-8-yl)cyclopropyl)-2-fluoro-6-methylbenzonitrile]	8.10	8.76
O=c1[nH]cc(-c2cc(N3CCC4(CCC4)C3)c3nccn3n2)c(=O)[nH]1 [Example 569, 5-(8-(6-azaspiro[3.4]octan-6-yl)imidazo[1,2-b]pyridazin-6-yl)pyrimidine-2,4(1H,3H)-dione]	7.95	8.18
O=c1[nH]cc(-c2cc(N3CCC4(C3)CC(F)(F)C4)c3nccn3n2)c(=O)[nH]1 [Example 571, 5-(8-(2,2-difluoro-6-azaspiro[3.4]octan-6-yl)imidazo[1,2-b]pyridazin-6-yl)pyrimidine-2,4(1H,3H)-dione]	7.21	7.52
COCC1(C)CCN(c2cc(-c3c[nH]c(=O)[nH]c3=O)nn3ccnc23)C1 (centres unmarked) [Example 572, 5-(8-(3-(methoxymethyl)-3-methylpyrrolidin-1-yl)imidazo[1,2-b]pyridazin-6-yl)pyrimidine-2,4(1H,3H)-dione]	7.03	7.60
N#Cc1cc(F)c([C@H]2C[C@@H]2c2cc(-c3c[nH]c(=O)[nH]c3=O)nn3c(F)cnc23)cc1F [Example 573, 4-((1S,2S)-2-(6-(2,4-dioxo-1,2,3,4-tetrahydropyrimidin-5-yl)-3-fluoroimidazo[1,2-b]pyridazin-8-yl)cyclopropyl)-2,5-difluorobenzonitrile]	8.13	8.92
O=c1[nH]cc(-c2cc(N3CC4CC(C3)C4(F)F)c3nccn3n2)c(=O)[nH]1 [Example 575, 5-(8-(6,6-difluoro-3-azabicyclo[3.1.1]heptan-3-yl)imidazo[1,2-b]pyridazin-6-yl)pyrimidine-2,4(1H,3H)-dione]	6.85	7.24
O=c1[nH]cc(-c2cc(N3CCC(C4CC4)C3)c3nccn3n2)c(=O)[nH]1 (centres unmarked) [Example 577, 5-(8-(3-cyclopropylpyrrolidin-1-yl)imidazo[1,2-b]pyridazin-6-yl)pyrimidine-2,4(1H,3H)-dione]	7.09	7.71
O=c1[nH]cc(-c2cc(N3CCC(C4CC(F)(F)C4)C3)c3nccn3n2)c(=O)[nH]1 (centres unmarked) [Example 578, 5-(8-(3-(3,3-difluorocyclobutyl)pyrrolidin-1-yl)imidazo[1,2-b]pyridazin-6-yl)pyrimidine-2,4(1H,3H)-dione]	5.73	6.79
O=c1[nH]cc(-c2cc([C@H]3C[C@@H]3c3ccc(Cl)cn3)c3ncc(F)n3n2)c(=O)[nH]1 [Example 584, 5-(8-((1S,2S)-2-(5-chloropyridin-2-yl)cyclopropyl)-3-fluoroimidazo[1,2-b]pyridazin-6-yl)pyrimidine-2,4(1H,3H)-dione]	8.53	9.04
O=c1[nH]cc(-c2cc([C@H]3C[C@@H]3c3ncc(Cl)cc3F)c3nccn3n2)c(=O)[nH]1 [Example 586, 5-(8-((1S,2S)-2-(5-chloro-3-fluoropyridin-2-yl)cyclopropyl)imidazo[1,2-b]pyridazin-6-yl)pyrimidine-2,4(1H,3H)-dione]	8.53	9.07
O=c1[nH]cc(-c2cc(N3CCC4(CCC(F)(F)CC4)C3)c3nccn3n2)c(=O)[nH]1 [Example 587, 5-(8-(8,8-difluoro-2-azaspiro[4.5]decan-2-yl)imidazo[1,2-b]pyridazin-6-yl)pyrimidine-2,4(1H,3H)-dione]	7.18	7.63
O=c1[nH]cc(-c2cc(N3CCC(Cn4ccnn4)C3)c3nccn3n2)c(=O)[nH]1 (centres unmarked) [Example 592, 5-(8-(3-((1H-1,2,3-triazol-1-yl)methyl)pyrrolidin-1-yl)imidazo[1,2-b]pyridazin-6-yl)pyrimidine-2,4(1H,3H)-dione]	6.11	7.02
C#CCC1CCN(c2cc(-c3c[nH]c(=O)[nH]c3=O)nn3ccnc23)C1 (centres unmarked) [Example 593, 5-(8-(3-(prop-2-yn-1-yl)pyrrolidin-1-yl)imidazo[1,2-b]pyridazin-6-yl)pyrimidine-2,4(1H,3H)-dione]	7.48	8.14

Now those with a higher pEC50 (CD73 [1]), led by results:

pEC50 (CD73 [1])	pIC50 (CD73 [2])	SMILES
8.58	9.01	O=c1[nH]cc(-c2cc([C@H]3C[C@@H]3c3ccc4nc(C(F)(F)F)sc4c3)c3nccn3n2)c(=O)[nH]1 [Example 562, 5-(8-((1S,2S)-2-(2-(trifluoromethyl)benzo[d]thiazol-6-yl)cyclopropyl)imidazo[1,2-b]pyridazin-6-yl)pyrimidine-2,4(1H,3H)-dione]
8.63	9.16	O=c1[nH]cc(-c2cc([C@H]3C[C@@H]3c3ncc(Cl)cc3F)c3ncc(F)n3n2)c(=O)[nH]1 [Example 588, 5-(8-((1S,2S)-2-(5-chloro-3-fluoropyridin-2-yl)cyclopropyl)-3-fluoroimidazo[1,2-b]pyridazin-6-yl)pyrimidine-2,4(1H,3H)-dione]
8.72	9.16	O=c1[nH]cc(-c2cc([C@H]3C[C@@H]3c3ccc(Cl)cn3)c3nccn3n2)c(=O)[nH]1 [Example 585, 5-(8-((1S,2S)-2-(5-chloropyridin-2-yl)cyclopropyl)imidazo[1,2-b]pyridazin-6-yl)pyrimidine-2,4(1H,3H)-dione]
8.99	8.22	O=c1[nH]cc(-c2cc([C@@H]3C[C@H]3c3cc4c(cn3)cnn4CC(F)(F)F)c3ncc(F)n3n2)c(=O)[nH]1 [Example 612, 5-(3-fluoro-8-((1R,2R)-2-(1-(2,2,2-trifluoroethyl)-1H-pyrazolo[4,3-c]pyridin-6-yl)cyclopropyl)imidazo[1,2-b]pyridazin-6-yl)pyrimidine-2,4(1H,3H)-dione]
9.28	8.90	O=c1[nH]cc(-c2cc([C@H]3C[C@@H]3c3cc4c(cnn4CC(F)(F)F)cc3F)c3nccn3n2)c(=O)[nH]1 [Example 595, 5-(8-((1S,2S)-2-(5-fluoro-1-(2,2,2-trifluoroethyl)-1H-indazol-6-yl)cyclopropyl)imidazo[1,2-b]pyridazin-6-yl)pyrimidine-2,4(1H,3H)-dione]
9.64	9.05	O=c1[nH]cc(-c2cc([C@H]3C[C@@H]3c3ccc4c(C(F)(F)F)nn(CC(F)(F)F)c4c3)c3nccn3n2)c(=O)[nH]1 [Example 607, 5-(8-((1S,2S)-2-(1-(2,2,2-trifluoroethyl)-3-(trifluoromethyl)-1H-indazol-6-yl)cyclopropyl)imidazo[1,2-b]pyridazin-6-yl)pyrimidine-2,4(1H,3H)-dione]
9.64	9.43	O=c1[nH]cc(-c2cc([C@H]3C[C@@H]3c3ccc4cnn(CC(F)(F)F)c4n3)c3ncc(F)n3n2)c(=O)[nH]1 [Example 610, 5-(3-fluoro-8-((1S,2S)-2-(1-(2,2,2-trifluoroethyl)-1H-pyrazolo[3,4-b]pyridin-6-yl)cyclopropyl)imidazo[1,2-b]pyridazin-6-yl)pyrimidine-2,4(1H,3H)-dione]
9.66	9.11	CC(n1ncc2ccc([C@H]3C[C@@H]3c3cc(-c4c[nH]c(=O)[nH]c4=O)nn4ccnc34)cc21)C(F)(F)F (stereo partly drawn) [Example 617, 5-(8-((1S,2S)-2-(1-(1,1,1-trifluoropropan-2-yl)-1H-indazol-6-yl)cyclopropyl)imidazo[1,2-b]pyridazin-6-yl)pyrimidine-2,4(1H,3H)-dione]
9.85	9.15	O=c1[nH]cc(-c2cc([C@H]3C[C@@H]3c3cc(F)c4cnn(CC(F)(F)F)c4c3)c3nccn3n2)c(=O)[nH]1 [Example 596, 5-(8-((1S,2S)-2-(4-fluoro-1-(2,2,2-trifluoroethyl)-1H-indazol-6-yl)cyclopropyl)imidazo[1,2-b]pyridazin-6-yl)pyrimidine-2,4(1H,3H)-dione]
9.89	9.47	O=c1[nH]cc(-c2cc([C@H]3C[C@@H]3c3cc(F)c4cnn(CC(F)(F)F)c4c3)c3ncc(F)n3n2)c(=O)[nH]1 [Example 618, 5-(3-fluoro-8-((1S,2S)-2-(4-fluoro-1-(2,2,2-trifluoroethyl)-1H-indazol-6-yl)cyclopropyl)imidazo[1,2-b]pyridazin-6-yl)pyrimidine-2,4(1H,3H)-dione]
9.92	9.24	O=c1[nH]cc(-c2cc([C@H]3C[C@@H]3c3ccc4cnn(CC(F)(F)F)c4c3F)c3nccn3n2)c(=O)[nH]1 [Example 594, 5-(8-((1S,2S)-2-(7-fluoro-1-(2,2,2-trifluoroethyl)-1H-indazol-6-yl)cyclopropyl)imidazo[1,2-b]pyridazin-6-yl)pyrimidine-2,4(1H,3H)-dione]
10.15	8.91	O=c1[nH]cc(-c2cc([C@H]3C[C@@H]3c3ccc4nc(C(F)(F)F)n(CC(F)(F)F)c4c3)c3nccn3n2)c(=O)[nH]1 [Example 620, 5-(8-((1S,2S)-2-(1-(2,2,2-trifluoroethyl)-2-(trifluoromethyl)-1H-benzo[d]imidazol-6-yl)cyclopropyl)imidazo[1,2-b]pyridazin-6-yl)pyrimidine-2,4(1H,3H)-dione]
